# Values quoted from earlier work as cited in patent US20060099233A1, “Granular formulation of neem seed extract and its process thereof” (E.I.D. Parry (India) Limited, priority 2004, published 2006).
# Read-outs that look alike come from different tables or passages of the source.
# Details: 25 days at 29±1° C.
smiles,measurement,setting,value
C/C=C(\C)C(=O)O[C@H]1C[C@@H](OC(C)=O)[C@@]2(C(=O)OC)CO[C@H]3[C@@H](O)[C@@](C)([C@]45O[C@@]4(C)[C@@H]4C[C@H]5O[C@@H]5OC=C[C@@]54O)[C@H]4[C@]1(CO[C@]4(O)C(=O)OC)[C@@H]32 [azadirachtin A],degradation of azadirachtin A,in ethanol and water,about 85%
same,degradation of azadirachtin A,in methanol and acetone,50%
same,degradation of azadirachtin A,"in methylene chloride, carbon tetrachloride and chloroform",75-80%
